Results published in patent US10167262B2, “Herbicidal substituted 3-arylpyrazoles” (FMC CORPORATION, priority 2014, dated 2019).

Tests used:
Type in all cases: in vivo
wild oat (Avena fatua) = experiment: Test C postemergence greenhouse test, plant response rating 0-100; conditions: for Plant response rating, Oat, Wild: scale 0 to 100
Summary of the method: (§1)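 Formulated compounds applied postemergence; plants 1- to 4-leaf stage. Evaluated visually vs. untreated controls after roughly two weeks (13–15 d) under greenhouse conditions; 100 denotes complete control.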

[1] = tested on: chickweed (common chickweed, Stellaria media); experiment: as above; conditions: for Plant response rating, Chickweed: scale 0 to 100
Summary of the method: as §1

kochia (Kochia scoparia) = experiment: as above; conditions: for Plant response rating, Kochia: scale 0 to 100
Summary of the method: as §1

[2] = tested on: blackgrass (Alopecurus myosuroides); experiment: Test C pre-/postemergence greenhouse test, plant response rating 0-100;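 also: 0 is no effect and 100 is complete control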
Summary of the method: (§2)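 Two application timings: preemergence onto seeded loam/sand soil and postemergence onto plants at the 1–4 leaf stage (2–18 cm) in peat/vermiculite medium. Formulation: non-phytotoxic solvent with surfactant. Read-out: visual control rating, 0–100, at 13–15 days after treatment.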

[3] = tested on: winter wheat (Triticum aestivum); experiment: as above
Summary of the method: as §2

[4] = tested on: pigweed (Amaranthus retroflexus); experiment: as above
Summary of the method: as §2

[5] = tested on: Italian ryegrass (Lolium multiflorum); experiment: as above
Summary of the method: as §2

[6] = tested on: galium (catchweed bedstraw, Galium aparine); experiment: as above
Summary of the method: as §2

[7] = tested on: yellow nutsedge (Cyperus esculentus); experiment: as above
Summary of the method: as §2

[8] = tested on: large (Lg) crabgrass (Digitaria sanguinalis); experiment: as above
Summary of the method: as §2

[9] = tested on: giant foxtail (Setaria faberii); experiment: as above
Summary of the method: as §2

corn (Zea mays) = experiment: as above
Summary of the method: as §2

soybean (Glycine max) = experiment: as above
Summary of the method: as §2

[10] = tested on: ragweed (common ragweed, Ambrosia elatior); experiment: as above;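 also: 0 is no effect and 100 is complete control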
Summary of the method: as §2

[11] = Postemergence, 250 g ai/ha, scale 0 to 100
[12] = Postemergence, 500 g ai/ha, scale 0 to 100

CCOC(OCC)(c1cccs1)c1c[nH]nc1-c1cc(Cl)cc(Cl)c1 [Compound 27]
100: Plant response rating, Pigweed [4, 11] | Plant response rating, Pigweed [4, 12] | Plant response rating, Pigweed ([4]; Preemergence, 125 g ai/ha) | Plant response rating, Pigweed ([4]; Preemergence, 250 g ai/ha) | Plant response rating, Pigweed ([4]; Preemergence, 500 g ai/ha) | Plant response rating, Ragweed ([10]; Preemergence, 500 g ai/ha)
40: Plant response rating, Soybean (soybean (Glycine max); Preemergence, 250 g ai/ha)
98: Plant response rating, Pigweed ([4]; Preemergence, 62 g ai/ha) | Plant response rating, Ragweed ([10]; Preemergence, 62 g ai/ha)
30: Plant response rating, Galium ([6]; Preemergence, 500 g ai/ha)
20: Plant response rating, Blackgrass ([2]; Preemergence, 62 g ai/ha)
75: Plant response rating (0 to 100), Ragweed ([10]; Postemergence, 125 g ai/ha) | Plant response rating, Ragweed [10, 12]
90: Plant response rating, Chickweed ([1]; 250 g ai/ha) | Plant response rating, Chickweed ([1]; 500 g ai/ha) | Plant response rating, Kochia (kochia (Kochia scoparia); 250 g ai/ha) | Plant response rating, Kochia (kochia (Kochia scoparia); 500 g ai/ha) | Plant response rating, Ragweed [10, 11]
10: Plant response rating, Crabgrass, Large [8, 11] | Plant response rating, Crabgrass, Large [8, 12]
85: Plant response rating (0 to 100), Chickweed ([1]; 125 g ai/ha)
70: Plant response rating, Ragweed ([10]; Preemergence, 125 g ai/ha) | Plant response rating, Ragweed ([10]; Preemergence, 250 g ai/ha)
50: Plant response rating, Blackgrass ([2]; Preemergence, 250 g ai/ha) | Plant response rating, Galium ([6]; Preemergence, 125 g ai/ha)
80: Plant response rating (0 to 100), Chickweed ([1]; 62 g ai/ha) | Plant response rating (0 to 100), Kochia (kochia (Kochia scoparia); 62 g ai/ha) | Plant response rating (0 to 100), Kochia (kochia (Kochia scoparia); 125 g ai/ha) | Plant response rating (0 to 100), Pigweed ([4]; Postemergence, 62 g ai/ha) | Plant response rating, Galium ([6]; Preemergence, 250 g ai/ha)
5: Plant response rating, Oat, Wild (wild oat (Avena fatua); 250 g ai/ha) | Plant response rating, Oat, Wild (wild oat (Avena fatua); 500 g ai/ha) | Plant response rating, Blackgrass ([2]; Postemergence, 125 g ai/ha, scale 0 to 100) | Plant response rating (0 to 100), Ryegrass, Italian ([5]; Postemergence, 62 g ai/ha) | Plant response rating, Ryegrass, Italian [5, 11] | Plant response rating, Ryegrass, Italian [5, 12]
65: Plant response rating (0 to 100), Ragweed ([10]; Postemergence, 62 g ai/ha)
0: Plant response rating (0 to 100), Oat, Wild (wild oat (Avena fatua); 62 g ai/ha) | Plant response rating (0 to 100), Oat, Wild (wild oat (Avena fatua); 125 g ai/ha) | Plant response rating (0 to 100), Blackgrass ([2]; Postemergence, 62 g ai/ha) | Plant response rating, Blackgrass [2, 11] | Plant response rating, Blackgrass [2, 12] | Plant response rating, Blackgrass ([2]; Preemergence, 125 g ai/ha) | Plant response rating, Blackgrass ([2]; Preemergence, 500 g ai/ha) | Plant response rating (0 to 100), Wheat ([3]; Postemergence, 62 g ai/ha) | Plant response rating (0 to 100), Wheat ([3]; Postemergence, 125 g ai/ha) | Plant response rating, Wheat [3, 11] | Plant response rating, Wheat [3, 12] | Plant response rating, Wheat ([3]; Preemergence, 62 g ai/ha) | Plant response rating, Wheat ([3]; Preemergence, 125 g ai/ha) | Plant response rating, Wheat ([3]; Preemergence, 250 g ai/ha) | Plant response rating, Wheat ([3]; Preemergence, 500 g ai/ha) | Plant response rating (0 to 100), Ryegrass, Italian ([5]; Postemergence, 125 g ai/ha) | Plant response rating, Ryegrass, Italian ([5]; Preemergence, 62 g ai/ha) | Plant response rating, Ryegrass, Italian ([5]; Preemergence, 125 g ai/ha) | Plant response rating, Ryegrass, Italian ([5]; Preemergence, 250 g ai/ha) | Plant response rating, Ryegrass, Italian ([5]; Preemergence, 500 g ai/ha) | Plant response rating (0 to 100), Galium ([6]; Postemergence, 62 g ai/ha) | Plant response rating (0 to 100), Galium ([6]; Postemergence, 125 g ai/ha) | Plant response rating, Galium [6, 11] | Plant response rating, Galium [6, 12] | Plant response rating, Galium ([6]; Preemergence, 62 g ai/ha) | Plant response rating (0 to 100), Nutsedge, Yellow ([7]; Postemergence, 62 g ai/ha) | Plant response rating (0 to 100), Nutsedge, Yellow ([7]; Postemergence, 125 g ai/ha) | Plant response rating, Nutsedge, Yellow [7, 11] | Plant response rating, Nutsedge, Yellow [7, 12] | Plant response rating, Nutsedge, Yellow ([7]; Preemergence, 62 g ai/ha) | Plant response rating, Nutsedge, Yellow ([7]; Preemergence, 125 g ai/ha) | Plant response rating, Nutsedge, Yellow ([7]; Preemergence, 250 g ai/ha) | Plant response rating, Nutsedge, Yellow ([7]; Preemergence, 500 g ai/ha) | Plant response rating (0 to 100), Crabgrass, Large ([8]; Postemergence, 62 g ai/ha) | Plant response rating (0 to 100), Crabgrass, Large ([8]; Postemergence, 125 g ai/ha) | Plant response rating, Crabgrass, Large ([8]; Preemergence, 62 g ai/ha) | Plant response rating, Crabgrass, Large ([8]; Preemergence, 125 g ai/ha) | Plant response rating, Crabgrass, Large ([8]; Preemergence, 250 g ai/ha) | Plant response rating, Crabgrass, Large ([8]; Preemergence, 500 g ai/ha) | Plant response rating (0 to 100), Foxtail, Giant ([9]; Postemergence, 62 g ai/ha) | Plant response rating (0 to 100), Foxtail, Giant ([9]; Postemergence, 125 g ai/ha) | Plant response rating, Foxtail, Giant [9, 11] | Plant response rating, Foxtail, Giant [9, 12] | Plant response rating, Foxtail, Giant ([9]; Preemergence, 62 g ai/ha) | Plant response rating, Foxtail, Giant ([9]; Preemergence, 125 g ai/ha) | Plant response rating, Foxtail, Giant ([9]; Preemergence, 250 g ai/ha) | Plant response rating, Foxtail, Giant ([9]; Preemergence, 500 g ai/ha) | Plant response rating (0 to 100), Corn (corn (Zea mays); Postemergence, 62 g ai/ha) | Plant response rating (0 to 100), Corn (corn (Zea mays); Postemergence, 125 g ai/ha) | Plant response rating, Corn (corn (Zea mays); [11]) | Plant response rating, Corn (corn (Zea mays); [12]) | Plant response rating, Corn (corn (Zea mays); Preemergence, 62 g ai/ha) | Plant response rating, Corn (corn (Zea mays); Preemergence, 125 g ai/ha) | Plant response rating, Corn (corn (Zea mays); Preemergence, 250 g ai/ha) | Plant response rating, Corn (corn (Zea mays); Preemergence, 500 g ai/ha) | Plant response rating (0 to 100), Soybean (soybean (Glycine max); Postemergence, 62 g ai/ha) | Plant response rating (0 to 100), Soybean (soybean (Glycine max); Postemergence, 125 g ai/ha) | Plant response rating, Soybean (soybean (Glycine max); [11]) | Plant response rating, Soybean (soybean (Glycine max); [12]) | Plant response rating, Soybean (soybean (Glycine max); Preemergence, 62 g ai/ha) | Plant response rating, Soybean (soybean (Glycine max); Preemergence, 125 g ai/ha) | Plant response rating, Soybean (soybean (Glycine max); Preemergence, 500 g ai/ha)
95: Plant response rating (0 to 100), Pigweed ([4]; Postemergence, 125 g ai/ha)
